# Measured values from patent US9186335B2, “Hot melt TTS for administering rotigotine” (UCB PHARMA GMBH, priority 2002, dated 2015).
# Experiment: Rotigotine purity/stability in the hot-melt adhesive matrix by gradient HPLC with UV detection
# Assay type: physicochemical
# Conditions: short-term heating to temperatures up to at least 160° C.
smiles,measurement,value
"CCCN(CCc1cccs1)[C@H]1CCc2c(O)cccc2C1 [Rotigotine, (−)-5,6,7,8-tetrahydro-6-[propyl[2-(2-thienyl)ethyl)amino]-1-napththol]",stability under heating,remains stable
